# From patent US20240299452A1, “Rapamycin and Cell Therapy” (Innovative Cellular Therapeutics Holdings, Ltd., priority 2023, published 2024)
# Legend:
# [1] = test system: CD19 CAR T cells stimulated with nalm6 cells; assay: CAR T cell proliferation after 96 hours with rapamycin; format: cell-based; details: nalm6 stimulation, CD4+ and CD8+ subsets
# Experimental: The following study investigated the effects of rapamycin on CAR T cells and tumor cell lines. In the first part of the experiment, cytokine release assays were performed. […] In the same experiments, T cell proliferation was assessed to determine whether rapamycin affects the expansion of CAR T cells. […] In the last part of the study, rapamycin was directly applied to two types of tumor cell lines, PC3 and LNCAP, to assess its impact on tumor cell proliferation. […] It can decrease the proliferation of tumor cells, aligning with clinical observations.
# The bar graphs depict the proliferation rates of CAR T cells, specifically CD4+ and CD8+ subsets, after 96 hours of stimulation with CD19 antigen and varying concentrations of rapamycin. […] CD8: The right graph indicates the percentage of proliferating CD8+ CAR T cells under the same treatment conditions as CD4+.
# [2] = taken orally at a dose of 2 mg/day; read-out: maximum blood concentration (Cmax); cited from earlier work
compound,measurement,setting,value
"CO[C@H]1C[C@@H]2CC[C@@H](C)[C@@](O)(O2)C(=O)C(=O)N2CCCC[C@H]2C(=O)O[C@H]([C@H](C)C[C@@H]2CC[C@@H](O)[C@H](OC)C2)CC(=O)[C@H](C)/C=C(\C)[C@@H](O)[C@@H](OC)C(=O)[C@H](C)C[C@H](C)/C=C/C=C/C=C/1C [rapamycin, Rapamycin]",CAR T cell proliferation,[1],not inhibited
same,Cmax,[2],16 nM
